Experimental data from US10987349B2, “Antitumor agent and bromodomain inhibitor” (FUJIFILM Corporation, priority 2016, dated 2021).

Columns and labels:
[1] = system: T-24; assay: Cell growth test (Cell Titer Blue) T-24; format: cell-based; details: Homo sapiens, 72 h, T-24, Bladder cancer, 3 days
Procedure: (§1) Moreover, the compound of Example 14 was subjected to a cell growth test using various types of cell lines.
(§2) All cell lines other than the below-noticed cells were each seeded in a well plate, in which an RPMI-1640 medium supplemented with penicillin/streptomycin and FBS with a final concentration of 10% was placed. The human prostate cancer cell line VCaP (ATCC) was seeded in a well plate, in which DMEM medium supplemented with penicillin/streptomycin and FBS with a final concentration of 10% was placed. […] Thereafter, using Enspire Multimode Plate Reader (PerkinElmer), the amount of fluorescence at an excitation wavelength of 531 nm and a fluorescence wavelength of 615 nm was measured. Since the amount of fluorescence is in proportion to the concentration of a florescent product resorufin that is converted from resazurin as a redox dye by living cells, the amount of fluorescence was used as an indicator of the number of living cells. The growth inhibition percentage of the test compound in each concentration was calculated according to the following equation. Growth inhibition percentage (%)=(amount of fluorescence in test compound−added well)/(amount of fluorescence in DMSO−added well)×100 […]

[2] = system: SW-620; assay: Cell growth test (Cell Titer Blue) SW-620; format: cell-based; details: Homo sapiens, 72 h, SW-620, Colon cancer, 3 days
Procedure: as §1, §2

[3] = system: MKN45; assay: Cell growth test (Cell Titer Blue) MKN45; format: cell-based; details: Homo sapiens, MKN-45, 72 h, MKN45, Stomach cancer, 3 days
Procedure: as §1, §2

[4] = system: KG-1; assay: Cell growth test (Cell Titer Blue) KG-1; format: cell-based; details: Homo sapiens, 72 h, KG-1, Acute myeloid leukemia, 3 days
Procedure: as §1, §2

[5] = system: NOMO-1; assay: Cell growth test (Cell Titer Blue) NOMO-1; format: cell-based; details: Homo sapiens, 72 h, NOMO-1, Acute myeloid leukemia, 3 days
Procedure: as §1, §2

[6] = system: HL-60; assay: Cell growth test (Cell Titer Blue) HL-60; format: cell-based; details: Homo sapiens, 72 h, HL-60, Acute myeloid leukemia, 3 days
Procedure: as §1, §2

[7] = system: Jurkat; assay: Cell growth test (Cell Titer Blue) Jurkat; format: cell-based; details: Homo sapiens, 72 h, Acute lymphoblastic leukemia, 3 days
Procedure: as §1, §2

[8] = system: K-562; assay: Cell growth test (Cell Titer Blue) K-562; format: cell-based; details: Homo sapiens, K562, 72 h, K-562, Chronic myeloid leukemia, 3 days
Procedure: as §1, §2

[9] = system: SK-HEP-1; assay: Cell growth test (Cell Titer Blue) SK-HEP-1; format: cell-based; details: Homo sapiens, SK-HEP1, 72 h, SK-HEP-1, Liver cancer, 3 days
Procedure: as §1, §2

[10] = system: NCI-H1299; assay: Cell growth test (Cell Titer Blue) NCI-H1299; format: cell-based; details: Homo sapiens, 72 h, NCI-H1299, Lung cancer, 3 days
Procedure: as §1, §2

[11] = system: Raji; assay: Cell growth test (Cell Titer Blue) Raji; format: cell-based; details: Homo sapiens, 72 h, Lymphoma (DSMZ), 3 days
Procedure: as §1, §2

[12] = system: U-937; assay: Cell growth test (Cell Titer Blue) U-937; format: cell-based; details: Homo sapiens, 72 h, U-937, Lymphoma, 3 days
Procedure: as §1, §2

[13] = system: human lymphoma cell line OCI-Ly7; assay: Cell growth test (Cell Titer Blue) OCI-LY7; format: cell-based; details: 72 h, 3 days
Procedure: as §1, §2

[14] = system: MDA-MB-453; assay: Cell growth test (Cell Titer Blue) MDA-MB-453; format: cell-based; details: Homo sapiens, 72 h, MDA-MB-453, Breast cancer, 3 days
Procedure: as §1, §2

[15] = system: MDA-MB-468; assay: Cell growth test (Cell Titer Blue) MDA-MB-468; format: cell-based; details: Homo sapiens, 72 h, MDA-MB-468, Breast cancer, 3 days
Procedure: as §1, §2

[16] = system: T47D; assay: Cell growth test (Cell Titer Blue) T47D; format: cell-based; details: Homo sapiens, 72 h, Breast cancer, 3 days
Procedure: as §1, §2

[17] = system: MDA-MB-435; assay: Cell growth test (Cell Titer Blue) MDA-MB-435; format: cell-based; details: Homo sapiens, 72 h, MDA-MB-435, Melanoma, 3 days
Procedure: as §1, §2

[18] = system: BxPC-3; assay: Cell growth test (Cell Titer Blue) BxPC-3; format: cell-based; details: Homo sapiens, 72 h, BxPC-3, Pancreatic cancer, 3 days
Procedure: as §1, §2

[19] = system: PANC-1; assay: Cell growth test (Cell Titer Blue) PANC-1; format: cell-based; details: Homo sapiens, 72 h, PANC-1, Pancreatic cancer, 3 days
Procedure: as §1, §2

[20] = system: human prostate cancer cell line VCaP; assay: Cell growth test (Cell Titer Blue) VCaP; format: cell-based; details: 72 h, 3 days
Procedure: as §1, §2

[21] = system: LNCaP; assay: Cell growth test (Cell Titer Blue) LNCaP; format: cell-based; details: Homo sapiens, 72 h, Prostate cancer, 3 days
Procedure: as §1, §2

[22] = system: DU-145; assay: Cell growth test (Cell Titer Blue) DU-145; format: cell-based; details: Homo sapiens, 72 h, DU-145, Prostate cancer, 3 days
Procedure: as §1, §2

[23] = system: Saos-2; assay: Cell growth test (Cell Titer Blue) Saos-2; format: cell-based; details: Homo sapiens, 72 h, Saos-2, Sarcoma, 3 days
Procedure: as §1, §2

[24] = Intravenous administration toxicity test on rats; format: in vivo, rat
Procedure: With reference to the above-described findings, the compound of the present example was administered to rats via repeated intravenous administration, and the influence of the compound on the body weight and the digestive tract was then evaluated.
The compound of Example 14 was dissolved in a solvent (a normal saline containing 1 equivalent of hydrochloric acid), and the obtained solution was then intravenously administered to 6-week-old male SD rats (Charles River Laboratories Japan) at a dose of 30 to 60 mg/kg, once a day, for 7 days. As a negative control, a solvent administration group involving administration of a normal saline was established. At the time of the final administration, the plasma concentration of the compound of Example 14 was measured. […] Moreover, a weight reduction was not observed during the administration period. Furthermore, on the day following the final administration, pathological evaluation was carried out.

[25] = male SD rats, intravenously 30 to 60 mg/kg, once a day, 7 days

## CCn1c(=O)cc(C2CCN(C)CC2)c2cc(C(=O)N(C)c3ccc(C)cc3)ccc21 [Example 14, 1-Ethyl-N-methyl-N-(4-methylphenyl)-4-(1-methylpiperidin-4-yl)-2-oxo-1,2-dihydroquinoline-6-carboxamide]
[1]
  GI50: 3040 nM
[2]
  GI50: 273 nM
[3]
  GI50: 2180 nM
[4]
  GI50: 57 nM
[5]
  GI50: 62 nM
[6]
  GI50: 27 nM
[7]
  GI50: 129 nM
[8]
  GI50: 17 nM
[9]
  GI50: 2500 nM
[10]
  GI50: 422 nM
[11]
  GI50: 203 nM
[12]
  GI50: 286 nM
[13]
  GI50: 274 nM
[14]
  GI50: 115 nM
[15]
  GI50: 1200 nM
[16]
  GI50: 286 nM
[17]
  GI50: 2780 nM
[18]
  GI50: 2550 nM
[19]
  GI50: 2980 nM
[20]
  GI50: 361 nM
[21]
  GI50: 64 nM
[22]
  GI50: 1430 nM
[23]
  GI50: 2620 nM
[24]; [25]
  plasma concentration at the time of the final administration: increased in proportion to the applied dose
  weight reduction during the administration period: not observed
[24]; male SD rats, intravenously 30 to 60 mg/kg, once a day, 7 days, day following the final administration
  pathological evaluation of gastrointestinal epithelial cells including gastrointestinal epithelial stem cells: no disorders were found
[24]; rats, intravenous
  AUC without weight reduction relative to the AUC upon intravenous administration in Test Example 3: 3.8 times
